Reference: patent publication US12187663B2, “Thyromimetics with a biphenylmethane scaffold and their use” (INTERNATIONAL SOCIETY FOR DRUG DEVELOPMENT S.R.L., priority 2019, dated 2025)

Key:
[1] = Serum levels of cholesterol, glucose, transaminases, amylase, lipase, bilirubin and triglycerides; assay type: in vivo, F-344 rats; details: rats, 3 days treatment
Description: Five-week-old male F-344 rats purchased from Charles River (Milano, Italy) were maintained on a standard laboratory diet (Ditta Mucedola, Milano, Italy). The animals were given food and water ad libitum with a 12-h light/dark daily cycle and were acclimated for 1 week before the start of the experiment. All procedures were performed in accordance with the Guidelines for the Care and Use of Laboratory Animals and were approved by the Italian Ministry of Health. […] A control group received the vehicle (DMSO 5% in corn oil). Additional two groups received daily injections of either IS25 or TG68 at the dose of 75 μg/100 g b.wt. intraperitoneally for 3 days. For the measurement of hepatocyte proliferation, animals received bromodeoxyuridine (BrdU; 1 g/1 L) in drinking water during the 3-day treatment period (FIGS. 7A and B).
Lack of severe liver toxicity was confirmed by measuring the levels of serum transaminases and bilirubin (FIG. 8) that were within the range of normal values for F-344 rats of the same age (Charles River datasheet). Pancreas damage was also evaluated by measuring the levels of amylase and lipase.

[2] = Solubility in water; assay type: physicochemical
[3] = tested on: ACC; test: Western blot of phosphorylated ACC in HepG2 cells; assay type: cell-based, Human; details: twenty-four hours of treatment
Description: Human hepatocellular carcinoma cells (HepG2), obtained from American Type Culture Collection (Manassas, Va., USA), were cultured in low-glucose (LG) Dulbecco's modified Eagle's medium (DMEM) ([…], Invitrogen, Carlsbad, Calif., USA) or high-glucose (HG) DMEM ([…]) supplemented with 10% fetal bovine serum (FBS) and […] penicillin/streptomycin in an atmosphere of 5% CO2 at 37° C. These cells were then treated with tested compounds at various concentrations for 24 h. After treatments, cells were lysed in a buffer containing 20 mM Tris-HCl (pH 7.5), 0.9% NaCl, 0.2% Triton X-100, and 1% of the protease inhibitor cocktail (Sigma-Aldrich, Milan, Italy) and then stored at −80° C. for further western blot analysis. All the analyses were conducted on cells between the third and the sixth passage.
Proteins (20-30 μg) were separated on CriterionTGX™ gel (4-20%) and transferred on Immuno-PVDF membrane (Biorad, Milan, Italy) for 1 h. Blots were incubated with the primary antibody at 4° C. overnight. All the polyclonal antibodies for the protein of interest were purchased from Santa Cruz Biotechnology, Inc., Dallas, TX, USA. Then, blots were washed 3 times for 10 minutes with 1×TBS, 0.1% Tween® 20 and incubated for 1 h with secondary antibody (peroxidase-coupled anti rabbit in 1×TBS, 0.1% Tween®20). […] Band densitometric analysis was performed using Image Lab Software (Biorad, Milan, Italy).
The liver is a major organ responsible for most functions of cellular metabolism and a mediator between dietary and endogenous sources of energy for extrahepatic tissues. In this context, AMPK constitutes an intrahepatic energy sensor regulating physiological energy dynamics by limiting anabolism and stimulating catabolism, thus increasing ATP availability. Once activated, AMPK phosphorylates its downstream substrates to reduce ATP-consuming anabolic pathways, including cholesterol, fatty acid, and triacylglycerol synthesis, and increases ATP-generating catabolic pathways, including fatty acid oxidation and lipolysis. […]

Structure (SMILES)	serum amylase (pancreas damage) [1]	serum cholesterol [1]	serum glucose [1]	serum lipase (pancreas damage) [1]	solubility in water [2]	ACC phosphorylation (p-ACC) [3]
Cc1cc(OCC(=O)O)cc(C)c1Cc1ccc(N)c(C(C)C)c1 [IS25, 2-(4-(4-amino-3-isopropylbenzyl)-3,5-dimethylphenoxy)acetic acid]	No significant changes	no change	no change	No significant changes	very soluble in water	significant ACC phosphorylation
CC(=O)Nc1ccc(Cc2c(C)cc(OCC(=O)O)cc2C)cc1C(C)C [TG68, 2-(4-(4-acetamido-3-isopropylbenzyl)-3,5-dimethylphenoxy)acetic acid]	No significant changes	no change	no change	No significant changes	very soluble in water	significant ACC phosphorylation
